Experiment [1] concerns the target T1, Glutaminyl-peptide cyclotransferase-like protein (Homo sapiens, UniProt Q9NXS2). The experiment in a line: Binding affinity to QPTCL (unknown origin) assessed as inhibition constant.
The target of experiment [2] is Glutaminyl-peptide cyclotransferase (Homo sapiens, UniProt Q16769). The experiment in a line: Binding affinity to QPCT (unknown origin) assessed as inhibition constant.
The target in experiment [3] is T1, Glutaminyl-peptide cyclotransferase-like protein. The experiment in a line: Binding affinity to QPCTL (unknown origin) assessed as dissociation constant.
For experiment [4] the target is unchanged. The experiment in a line: Inhibition of QPCTL (unknown origin).
For experiment [5] the target is unchanged. In words: Binding affinity to QPCTL (unknown origin) extracted from Escherichia coli BL21 (DE3) assessed as inhibition constant.

The values below come from ChEMBL document CHEMBL6096678, “Targeting QPCTL: An Emerging Therapeutic Opportunity” (J Med Chem, 2025).

A value given as a limit tells only on which side of the number the result lay.

T1 sequence (Q9NXS2 whole entry): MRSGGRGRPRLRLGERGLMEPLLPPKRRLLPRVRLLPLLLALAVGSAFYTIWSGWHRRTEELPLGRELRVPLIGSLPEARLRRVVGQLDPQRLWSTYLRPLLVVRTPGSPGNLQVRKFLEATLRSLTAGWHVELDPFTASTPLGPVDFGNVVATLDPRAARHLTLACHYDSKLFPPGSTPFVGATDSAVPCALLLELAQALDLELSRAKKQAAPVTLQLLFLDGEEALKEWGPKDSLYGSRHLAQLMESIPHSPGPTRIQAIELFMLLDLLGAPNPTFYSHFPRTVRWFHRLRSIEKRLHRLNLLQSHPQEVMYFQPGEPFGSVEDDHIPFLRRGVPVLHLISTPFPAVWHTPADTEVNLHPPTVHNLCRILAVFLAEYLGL
Glutaminyl-peptide cyclotransferase, sequence (Q16769 whole entry): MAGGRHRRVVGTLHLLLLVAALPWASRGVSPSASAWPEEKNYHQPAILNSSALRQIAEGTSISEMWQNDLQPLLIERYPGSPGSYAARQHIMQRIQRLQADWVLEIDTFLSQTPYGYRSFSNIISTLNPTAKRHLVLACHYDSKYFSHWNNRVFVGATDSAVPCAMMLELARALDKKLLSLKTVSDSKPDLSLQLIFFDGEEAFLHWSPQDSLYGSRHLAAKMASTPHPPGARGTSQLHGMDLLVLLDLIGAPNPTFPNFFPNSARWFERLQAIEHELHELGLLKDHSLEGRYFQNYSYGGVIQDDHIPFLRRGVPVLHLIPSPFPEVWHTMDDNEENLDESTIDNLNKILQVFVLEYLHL

As usually defined, the Ki is the dissociation constant of the complex between target and ligand, obtained from inhibition or displacement. `CCCOc1ccc(C2c3c(nn(C)c3C)C(=O)N2c2ccc3[nH]cnc3c2)c(F)c1` (configuration not stated): the Ki was less than 25 nM in experiment [1] and less than 100 nM in experiment [2].
On to `CCCOc1ccc([C@H]2CNC(=O)N2c2ccc3[nH]cnc3c2)cc1` [VAROGLUTAMSTAT], for which the Ki in experiment [1] was 5 nM.
In general, Kd refers to the constant that tells how readily two partners part at equilibrium. Regarding `O=c1cc(-c2ccc(O)c(O)c2)oc2cc(O)cc(O)c12` [LUTEOLIN], in experiment [3], the Kd worked out at 9400 nM.
Turning to `O=C1[C@H](O)[C@H](c2c(F)cc(-c3cnn(C(F)F)c3)cc2F)N1c1ccc2[nH]cnc2c1`, the Ki in experiment [1] was less than 2 nM.
As usually defined, the IC50 is the concentration that gives 50% inhibition. The compound `Cc1ccc(-c2ccsc2)c(N2CCC(c3nnc(N)n3C)CC2)n1` returned an IC50 in experiment [4] of less than 1 nM.
On to `Cn1ccnc1` [1-METHYLIMIDAZOLE], for which the Ki in experiment [5] was 79000 nM.
